Measured values reported in US11299514B2, “Antimicrobial peptide AS-hepc3(48-56) of Acanthopagrus schlegelii and method thereof” (Xiamen University, priority 2019, dated 2022).
Values after ≈ are worked out from the molar mass of the structure shown. Peptide text beside a SMILES is read from it.

Columns and labels:
[1] = test system: Pseudomonas aeruginosa PAO1; experiment: Comparative experiment of drug resistance (serial passage, change of MIC); format: cell-based
Text: FIG. 1 illustrates a comparison of antimicrobial resistance of an antimicrobial peptide AS-hepc3(48-56) of Acanthopagrus schlegelii and antibiotic meropenem against Pseudomonas aeruginosa PAO1, wherein the abscissa represents time (days), and the ordinate represents a ratio of change of a minimum inhibition concentration (MIC) and an initial antimicrobial concentration.
1. Comparison of the antimicrobial peptide AS-hepc3(48-56) and antibiotic meropenem against Pseudomonas aeruginosa PAO1. Pseudomonas Aeruginosa PAO1 was purchased from the China General Microbiological Culture Collection Center, Institute of Microbiology, Chinese Academy of Sciences.
A detailed method is as follows:
(1) Preserved Pseudomonas aeruginosa PAO1 was streaked on MH plates and was cultured at 37° C. overnight;
(2) A single clone was screened and was cultured in MH liquid medium at 37° C. and 200 rpm to a logarithmic stage;
(3) The strain was corrected at 5000 g for 2 minutes, the strain was resuspended in 10 mM sodium phosphate buffer (pH=7.4), and the strain was finally diluted with a mixture of the 10 mM sodium phosphate buffer and the MH liquid medium to enable a final concentration of the stain to be 5×10^5 cfu/mL;
(4) Synthesized powder of the antimicrobial peptide AS-hepc3(48-56) was dissolved in sterile Milli-Q water, and a peptide concentration was diluted to 8 μM, 12 μM, 16 μM, 24 μM, 32 μM, 48 μM, 64 μM, or 96 μM in double ratios;
(5) Antibiotic meropenem powder was dissolved in sterile Milli-Q water to configure a 5 mg/mL reserved solution, filtered by a 0.22 μm filter membrane, and diluted to different work concentrations being 0.0625 μg/mL, 0.125 μg/mL, 0.25 μg/mL, 0.5 μg/mL, 1 μg/mL, 2 μg/mL, 4 μg/mL, 8 μg/mL, 16 μg/mL, 32 μg/mL, 48 μg/mL, 64 μg/mL, 96 μg/mL, 128 μg/mL, 192 μg/mL, 256 μg/mL, or 512 μg/mL; and
(6) On a 96-well cell culture plate, each test strain was arranged into a blank control group, a negative control group, and a test group, and three parallel groups of each test group were as follows: • a) Blank control group: 50 μL of test peptide sample and 50 μL of medium; • b) Negative control group: 50 μL of sterile Milli-Q water and 50 μL of strain suspension; and • c) Test group: 50 μL of the test peptide sample and 50 μL of the strain suspension.
The 96-well cell culture plate was placed in a 37° C. incubator and was cultured for 18-24 hours, and MIC results in the test group were observed. The strain having the maximum peptide concentration at which the growth of the strain could be observed was repeatedly diluted thousand-fold, and 50 μL was repeatedly taken for a next generation of antimicrobial experiments for 150 generations.

[2] = test system: drug-resistant clinical Pseudomonas aeruginosa isolate QZ19123; format: cell-based; details: P. aeruginosa QZ19123
Text: (§1) 1. Strains were as follows: Pseudomonas aeruginosa PAO1, drug-resistant clinical Pseudomonas aeruginosa isolates QZ19121, QZ19122, QZ19123, QZ19124, and QZ19125, drug-resistant clinical Acinetobacter baumannii isolates QZ18050 and QZ18055, clinical isolation of resistant Staphylococcus aureus QZ18090 and QZ18091, drug-resistant clinical Klebsiella pneumoniae isolate QZ18106, and drug-resistant clinical Escherichia coli isolates QZ18109 and QZ18110. Pseudomonas aeruginosa PAO1 was purchased from the China General Microbiological Culture Collection Center, Institute of Microbiology, Chinese Academy of Sciences, and the clinical isolates were from the Laboratory of Second Affiliated Hospital of Fujian Medical University.
(§2) 2. A detailed method is as follows.
(§3) (1) Preserved strains were streaked on MH plates (Mueller-Hinton agar plates) and were cultured at 37° C. overnight;
(§4) (2) A single clone was screened and was cultured in a MH liquid medium (Mueller-Hinton agar liquid medium) at 37° C. and 200 rpm (revolutions per minute) to a logarithmic stage;
(§5) (3) The strains were collected at 5000 g (i.e., a 5000 g centrifugal force) for 2 minutes, the strains were resuspended with a 10 mM (mmol/L) sodium phosphate buffer (pH=7.4), and the strains were finally diluted with the MH liquid medium to enable a final concentration of the strains to be 5×10^5 cfu/mL;
(§6) (4) Synthesized powder of the antimicrobial peptide AS-hepc3(48-56) was dissolved in sterile Milli-Q water, and a peptide concentration (i.e., a concentration of the antimicrobial peptide AS-hepc3(48-56)) was diluted to 2 μM, 4 μM, 8 μM, 16 μM, 32 μM, or 64 μM in double ratios; and
(§7) (5) On a polypropylene sterile 96-well culture plate, each test strain was arranged into a blank control group, a negative control group, and a test group, and three parallel groups of each test group were as follows: • a) Blank control group: 50 μL of test peptide sample (i.e., the antimicrobial peptide AS-hepc3(48-56)) and 50 μL of medium (i.e., the Mueller-Hinton agar liquid medium); • b) Negative control group: 50 μL of sterile Milli-Q water and 50 μL of strain suspension; and • c) Test group: 50 μL of test peptide sample and 50 μL of the strain suspension.
(§8) The polypropylene sterile 96-well culture plate was placed in a 37° C. incubator for 18-24 hours, and MIC results in the test group were observed. After the test group was pipetted and mixed, an appropriate amount of the strain was drawn and spread on the MH plate and was cultured at 37° C. overnight, and MBC results were observed.
(§9) Annotations: MIC: minimum inhibitory concentration (μM), which is represented by a-b; a is a maximum peptide concentration at which a growth of the strain can be observed by naked eyes, and b is a minimum peptide concentration at which no growth of the strain can be observed by the naked eyes. MBC: Minimum bactericidal concentration (μM), which is a concentration that kills 99.9% of microbes.

[3] = test system: drug-resistant clinical Pseudomonas aeruginosa isolate QZ19125; format: cell-based; details: P. aeruginosa QZ19125
Text: as §1, §2, §3, §4, §5, §6, §7, §8, §9

[4] = test system: drug-resistant clinical Pseudomonas aeruginosa isolate QZ19121; format: cell-based; details: P. aeruginosa QZ19121
Text: as §1, §2, §3, §4, §5, §6, §7, §8, §9

[5] = test system: resistant Staphylococcus aureus QZ18090; format: cell-based; details: S. aureus QZ18090
Text: as §1, §2, §3, §4, §5, §6, §7, §8, §9

[6] = test system: Pseudomonas aeruginosa PAO1; format: cell-based
Text: as §1, §2, §3, §4, §5, §6, §7, §8, §9

[7] = test system: drug-resistant clinical Escherichia coli isolate QZ18109; format: cell-based; details: E. coli QZ18109
Text: as §1, §2, §3, §4, §5, §6, §7, §8, §9

[8] = test system: drug-resistant clinical Pseudomonas aeruginosa isolate QZ19122; format: cell-based; details: P. aeruginosa QZ19122
Text: as §1, §2, §3, §4, §5, §6, §7, §8, §9

[9] = test system: drug-resistant clinical Acinetobacter baumannii isolate QZ18050; format: cell-based; details: A. baumannii QZ18050
Text: as §1, §2, §3, §4, §5, §6, §7, §8, §9

[10] = test system: drug-resistant clinical Klebsiella pneumoniae isolate QZ18106; format: cell-based; details: K. pneumoniae QZ18106
Text: as §1, §2, §3, §4, §5, §6, §7, §8, §9

[11] = test system: drug-resistant clinical Acinetobacter baumannii isolate QZ18055; format: cell-based; details: A. baumannii QZ18055
Text: as §1, §2, §3, §4, §5, §6, §7, §8, §9

[12] = test system: drug-resistant clinical Escherichia coli isolate QZ18110; format: cell-based; details: E. coli QZ18110
Text: as §1, §2, §3, §4, §5, §6, §7, §8, §9

[13] = test system: drug-resistant clinical Pseudomonas aeruginosa isolate QZ19124; format: cell-based; details: P. aeruginosa QZ19124
Text: as §1, §2, §3, §4, §5, §6, §7, §8, §9

[14] = test system: resistant Staphylococcus aureus QZ18091; format: cell-based; details: S. aureus QZ18091
Text: as §1, §2, §3, §4, §5, §6, §7, §8, §9

[15] = test system: human kidney epithelial cells (293T); experiment: in vitro; format: cell-based
Text: (§10) FIGS. 2A and 2B illustrate cytotoxicity experimental result diagrams of antimicrobial peptide AS-hepc3(48-56) obtained by an MTS-PMS method, wherein FIG. 2A represents AML12 cells (alpha mouse liver 12 cells), FIG. 2B represents 293T cells, the abscissa represents an AS-hepc3(48-56) protein concentration (μM), and the ordinate represents a cell proliferation rate (%).
(§11) 1. Mouse hepatocytes (AML12) (mouse liver cells) and human kidney epithelial cells (293T) were selected to detect a cytotoxicity of the antimicrobial peptide AS-hepc3(48-56).
as §2
(§12) (6) Well-grown mouse hepatocytes (AML12) and human kidney epithelial cells (293T) were collected, a cell concentration was adjusted to 10^3-10^4 cells/mL, the cells were evenly blown, and 100 μL of strain suspension was placed in each well of a 96-well cell culture plate and was static cultured at a condition of 37° C. and […]. More than 50% of the strains were adhered to a wall.
(§13) (7) The medium is carefully sucked out, a corresponding medium comprising different concentrations (0 μM, 40 μM, or 80 μM) was added and was static cultured for 24 hours at a condition of 37° C. and […].
(§14) (8) After 20 μL of MTS-PMS solution was added and was incubated for 3 hours in the dark, an OD492 value (optical density reading at 492 nm wavelength) was detected by a microplate reader to evaluate the cytotoxicity of the antimicrobial peptide AS-hepc3(48-56).

[16] = in vitro; format: cell-based, human
Text: as §10, §11, §2, §12, §13, §14

[17] = test system: mouse hepatocytes (AML12); experiment: in vitro; format: cell-based
Text: as §10, §11, §2, §12, §13, §14

[18] = human, 293T cells (human kidney epithelial cells)
[19] = mouse, AML12 cells (mouse hepatocytes)

## C[C@@H](O)[C@H]1C(=O)N2C(C(=O)O)=C(S[C@@H]3CN[C@H](C(=O)N(C)C)C3)[C@H](C)[C@H]12 [meropenem]
[1]; after 3 days of continuous use
  anti-Pseudomonas aeruginosa MIC value relative to initial MIC value: 4 times
[1]; after 10 days of continuous use
  anti-Pseudomonas aeruginosa MIC value relative to initial MIC value: 16 times
[1]; after 90 days of use
  anti-Pseudomonas aeruginosa MIC value relative to initial MIC value: 1024 times

## N=C(N)NCCC[C@H](NC(=O)[C@H](CS)NC(=O)[C@H](CCCNC(=N)N)NC(=O)[C@H](CCCNC(=N)N)NC(=O)[C@H](CCCNC(=N)N)NC(=O)[C@@H](N)CCCNC(=N)N)C(=O)N[C@@H](Cc1ccccc1)C(=O)N[C@@H](CS)C(=O)N[C@@H](CS)C(=O)O [AS-hepc3(48-56), Arg-Arg-Arg-Arg-Cys-Arg-Phe-Cys-Cys] (H-RRRRCRFCC-OH; N-terminus and C-terminus assumed)
[2]
  MBC: 16 µM (≈ 20.1 µg/mL)
  MIC: 4 to 8 µM
[3]
  MBC: 16 µM (≈ 20.1 µg/mL)
  MIC: 8 to 16 µM
[4]
  MBC: 16 µM (≈ 20.1 µg/mL)
  MIC: 4 to 8 µM
[5]
  MBC: 8 µM (≈ 10 µg/mL)
  MIC: 4 to 8 µM
[6]
  MBC: 8 µM (≈ 10 µg/mL)
  MIC: 4 to 8 µM
[7]
  MBC: 16 µM (≈ 20.1 µg/mL)
  MIC: 4 to 8 µM
[8]
  MBC: 16 µM (≈ 20.1 µg/mL)
  MIC: 4 to 8 µM
[9]
  MBC: >32 µM
  MIC: >32 µM
[10]
  MBC: >32 µM
  MIC: >32 µM
[11]
  MBC: >32 µM
  MIC: >32 µM
[12]
  MBC: 8 µM (≈ 10 µg/mL)
  MIC: 4 to 8 µM
[13]
  MBC: 16 µM (≈ 20.1 µg/mL)
  MIC: 4 to 8 µM
[14]
  MBC: 8 µM (≈ 10 µg/mL)
  MIC: 4 to 8 µM
[15]
  cytotoxicity (in words): no cytotoxicity
[16]; [18]
  viability at 24 h, 40 µM: > 95%
  viability at 24 h, 80 µM: > 95%
[16]; [19]
  viability at 24 h, 40 µM: > 95%
  viability at 24 h, 80 µM: > 95%
[17]
  cytotoxicity (in words): no cytotoxicity
[1]; after 150 days of continuous use
  anti-Pseudomonas aeruginosa MIC value relative to initial MIC value: twice
